The values that follow come from the METLIN SMRT retention time set (Domingo-Almenara et al. 2019).

This series is described as follows: gradient 5% acetonitrile 3 min, to 50% in 2 min, to 85% in 15 min, held 3 min, 100 µL/min. The note with it: column: Zorbax Extend-C18 2.1 x 50 mm; eluents: water / acetonitrile, 0.1% formic acid. The method, boiled down:
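Pure standards were analyzed in mixtures of ~100 molecules using HPLC coupled to a quadrupole time-of-flight mass spectrometer, in both positive and negative ionization mode. Separation used a Zorbax Extend-C18 column (2.1 × 50 mm, 1.8 μm) at 100 μL/min, with water and acetonitrile each containing 0.1% formic acid. Dead and dwell volumes were 40 μL and 900 μL, and data were collected over 3 months. Retention time was read from computationally picked adduct peaks, each inspected manually.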
In the case of `CC1(C(=O)NCc2ccccc2)Cn2cnc(C(=O)N3CCc4ccccc43)c2C(=O)N1C1CC1` (centres undefined), the RP-LC retention time was 720 s.

Molecule `COc1cccc(CC(=O)NC2CCN(c3cc(-c4cccs4)[nH]n3)C2)c1` (centres undefined) registered an RP-LC retention time of 658 s.

As for `Cc1ccc(CNC(=O)N2CC=C(c3cn(C)c4ncccc34)CC2)cc1`, the RP-LC retention time was 818 s.

Molecule `O=C(Nc1ccc(F)cc1)N1CCC(n2cnc3ccc(Cl)cc3c2=O)CC1` returned an RP-LC retention time of 828 s.

Consider `O=C(CCC(=O)OCC(=O)c1ccccc1)Nc1ccc2ccccc2c1`, for which the RP-LC retention time amounted to 891 s.

Molecule `O=C(CCNc1cnc2cnccn12)Nc1ccc2c(c1)OCO2` came in with an RP-LC retention time of 570 s.

`CN(CC1CCOC1)C(=O)Nc1cccc(C(F)(F)F)c1` (centres undefined) had an RP-LC retention time of 784 s.

`COc1ccc(C2CC(=O)N(c3ccccc3)C(=O)C2)cc1OC` yielded an RP-LC retention time of 860 s.

The molecule `Cc1nc(-c2ccncc2)nc2c1CCC(=O)N2CCN1CCCC1` had an RP-LC retention time of 533 s.

The molecule `O=C1CC(NC(=O)C2(c3ccccc3)CCOCC2)CN1C1CC1` (centres undefined) yielded an RP-LC retention time of 621 s.

The molecule `Cc1cccc(N2CCN(c3ccc4cc(S(=O)(=O)N5CCC(C)CC5)ccc4n3)CC2)c1C` registered an RP-LC retention time of 1460 s.

Turning to `COc1ccc2c(OCc3nnc4ccc(-c5ccccc5)nn34)ccnc2c1`, the RP-LC retention time amounted to 690 s.

`Cc1cccc(CN2N=C(C(=O)N3CCOCC3)S(=O)(=O)c3ccccc32)c1` came in with an RP-LC retention time of 832 s.

`COc1ccc(C(=O)C(C)OC(=O)C(C)N2C(=O)c3ccccc3C2=O)cc1` (centres undefined) registered an RP-LC retention time of 913 s.

`CCc1ccc(NC(=O)Cn2c(=O)c(CCC(=O)NCC(C)C)nc3ccccc32)cc1` yielded an RP-LC retention time of 878 s.

In turn, `CC(C)CCNC(=O)CN1C(=O)CC(c2cccs2)=Nc2ccccc21` returned an RP-LC retention time of 888 s.

For the molecule `CCn1ncc(CN(C)C(=O)c2cn3ccccc3n2)c1C`, the RP-LC retention time was 556 s.

Take `Cc1ccc(N2CC(NC(=O)C(=O)c3c[nH]c4ccccc34)CC2=O)cc1` (centres undefined): the RP-LC retention time is 823 s.

On to `O=C(NC1CCN(c2ccccc2)C1=O)c1ccccc1C(F)(F)F` (centres undefined), for which the RP-LC retention time was 826 s.

`COCCCNC(=O)C1CCN(Cc2cc3ccccc3n2Cc2ccccc2C)CC1` gave an RP-LC retention time of 718 s.

`Cc1ccc(-c2noc(-c3nn(CC(=O)NC(C)C)c4ccccc34)n2)cc1` had an RP-LC retention time of 1080 s.

Regarding `CC1CCN(C(=O)C2=CN(c3ccc4c(c3)OCCO4)c3ccccc3S2(=O)=O)CC1`, the RP-LC retention time was found to be 899 s.

As to `CC1CCCCN1c1ccn2c(=O)n(CC(=O)Nc3cc(F)cc(F)c3)nc2n1` (centres undefined), the RP-LC retention time worked out at 810 s.

In the case of `CCCCn1cc(S(=O)(=O)NCc2ccccc2F)c2cccnc21`, the RP-LC retention time turned out to be 754 s.

Consider `CCC1CCCCN1C(=O)c1cnc2nc(C)ccc2c1Nc1ccc(CC(=O)O)cc1` (centres undefined), for which the RP-LC retention time was 598 s.

`O=C(Nc1cccc(Br)c1)N1CCC(N2CCN(Cc3ccccc3)C2=O)CC1`: the RP-LC retention time was found to be 847 s.

In turn, `Cc1cc(C)cc(NC(=O)Cc2csc3nc(-c4cccc(Cl)c4)cn23)c1` came in with an RP-LC retention time of 1070 s.

Turning to `CCc1cccc(N2C(=O)c3c(C(=O)OC)ncn3CC2(C)C(=O)NC2CCCC2)c1` (centres undefined), the RP-LC retention time was 615 s.

On to `O=C(NCc1ccncc1)C1CCCN(c2nnc3ccc(C(F)(F)F)cn23)C1` (centres undefined), for which the RP-LC retention time came out at 550 s.

Turning to `Cc1ccc(-c2noc(Cn3c(=O)n(-c4ccc(Cl)cc4)c(=O)c4sccc43)n2)cc1C`, the RP-LC retention time is 1150 s.

Molecule `COCCCn1c(=O)c2ccccc2n(Cc2nc(-c3ccc(Br)cc3)no2)c1=O` yielded an RP-LC retention time of 1120 s.

Consider `CCn1ccc(C(=O)N2CC(c3nc(CCOCC4CC4)no3)C2)n1`, for which the RP-LC retention time was 725 s.

Regarding `N#Cc1ccc(-c2nc(-c3ccc4c(c3)nnn4CCC(=O)N3CCCC3)no2)c(F)c1`, the RP-LC retention time was 849 s.

In turn, `Cc1cccc(CNC(=O)CN2CCN(Cc3ccc(F)cc3Cl)C2=O)c1` showed an RP-LC retention time of 889 s.

The molecule `COCCn1cc(CCNC(=O)c2cncc(Br)c2)c2cccnc21` gave an RP-LC retention time of 678 s.

With `CCOc1ccc(C(=O)N2C[C@@H]3C[C@H]2C[C@@H]3NS(=O)(=O)c2ccccc2)cc1`, the RP-LC retention time was 764 s.

Consider `CCCN(C)C(=O)c1c(C)oc2ccn(Cc3ccc(F)cc3)c(=O)c12`, for which the RP-LC retention time was found to be 761 s.

`COc1ccc(N2CCN(c3cc(C)nc4nc(-c5ccc(C)cc5)nn34)CC2)cc1`: the RP-LC retention time worked out at 1010 s.

`CCNC(=O)C1CCCN(c2nc3ncn(CC(=O)NCc4ccccc4)c(=O)c3s2)C1` (centres undefined) showed an RP-LC retention time of 638 s.

Molecule `Cc1ccc(C)c(-c2csc(Cc3nc(-c4ccc(F)cc4)no3)n2)c1` registered an RP-LC retention time of 1300 s.

On to `COCCCNC(=O)C1CCN(c2cnc3nc(C)c(C)nc3c2)CC1`, for which the RP-LC retention time was found to be 574 s.

`Cc1ccc(N2CC(c3nc(-c4ccc5c(c4)nc(C)c(=O)n5C)no3)CC2=O)cc1` (centres undefined): the RP-LC retention time came out at 837 s.

Take `CSc1cccc(NC(=O)c2[nH]c3cc(C)sc3c2CN2CCOCC2)c1`: the RP-LC retention time turned out to be 733 s.

In turn, `CCN1c2ccc(F)cc2C(=O)NC12CCN(C(=O)c1ccc(OC)cc1)CC2` displayed an RP-LC retention time of 773 s.

As to `O=C(Nc1cccc2ccc(-n3ccnc3)nc12)C1COc2ccccc2O1` (centres undefined), the RP-LC retention time worked out at 674 s.

`CCc1ccc(S(=O)(=O)c2cnc(N3CCN(c4ccccc4Cl)CC3)nc2N)cc1`: the RP-LC retention time is 1290 s.

For `C=CCN1CCN(c2nc3cc(C(=O)OC)ccc3c(=O)n2-c2ccc(OC)c(OC)c2)CC1`, the RP-LC retention time stood at 631 s.

For `O=C(c1ccccc1Cl)N1CCN(c2cc(-c3ccccc3)[nH]n2)CC1`, the RP-LC retention time worked out at 804 s.

Take `COc1cccc(NC(=O)N2CCC3(CC2)N=C(c2ccc(Cl)cc2)C(=O)N3)c1`: the RP-LC retention time stood at 870 s.

For `Cc1noc(C2CN(CCCc3ccccc3)CC23CCCC3)n1` (centres undefined), the RP-LC retention time is 1020 s.

Turning to `CC(C)CCNC(=O)C1CC(=O)N(c2n[nH]c3cccc(F)c23)C1` (centres undefined), the RP-LC retention time was determined as 699 s.

Regarding `O=C(Cc1nnc2cc(-c3nc(C4CC4)no3)ccn12)NC1CC1`, the RP-LC retention time is 646 s.

Turning to `Cc1ccc2oc(C(=O)N3CCC(CCN4CCCCC4)CC3)cc(=O)c2c1`, the RP-LC retention time was determined as 611 s.

Turning to `CCc1nncn1C1CCN(S(=O)(=O)c2ccc(OC)cc2)CC1`, the RP-LC retention time came to 668 s.

Regarding `COC(=O)c1ccc(NC(=O)c2sc(-c3cn(C(C)C)c4ncccc34)nc2C)cc1`, the RP-LC retention time came out at 1090 s.

For `COCCNC(=O)C1CCCN(C(=O)Nc2ccc(NC(=O)Nc3ccccc3)cc2)C1` (centres undefined), the RP-LC retention time was 676 s.

With `CC(C)C(=O)N1CCC2(CC1)CCC(O)(CN(C)C)CC2`, the RP-LC retention time is 559 s.

For the molecule `O=C(NCc1ccco1)c1cccc(Nc2c(-c3ccc(Cl)cc3)nc3cnccn23)c1`, the RP-LC retention time was found to be 826 s.

`CCCCN(C)C(=O)Cn1c(C2CC(=O)N(C3CCCC3)C2)nc2ccccc21` (centres undefined) had an RP-LC retention time of 680 s.
